Reference: patent US11464770B2, “Anticancer pharmaceutical composition” (NATIONAL CANCER CENTER, priority 2016, dated 2022)
Where two headings read alike, the source gives them in different places.

How the values were obtained:
[1] = test system: blood cancer cell lines (e.g. HL-60, Jurkat, Raji, Ramos, Daudi, MOLT-4); test: Cell based assay, cell viability (CellTiter-Glo), blood cancer cell lines; conditions: Homo sapiens
Procedure: (§1) Commercially available bladder cancer, prostate cancer, lung cancer, breast cancer, blood cancer, pancreatic cancer, colorectal cancer, brain cancer, neuroblastoma, melanoma, liver cancer, cervical carcinoma, ovarian cancer, renal cancer, and papilloma cell lines were each treated with trypsin-EDTA and cultured, followed by being seeded in each well of a 96 well plate. After 24 hours of treatment at constant temperature, the respective cells were treated with the candidate compound so that a final concentration became 0 to 2 μM. The treated cells were additionally cultured for 72 hours, and cell viability was measured by using an ATP detection method (CellTiter-Glo® Luminescent Cell Viability Assay, Promega).

[2] = test system: pancreatic cancer cell lines (e.g. MIA PaCa-2); test: Cell based assay, cell viability (CellTiter-Glo), pancreatic cancer cell lines; conditions: Homo sapiens
Procedure: as §1

neuroblastoma cell lines = test: Cell based assay, cell viability (CellTiter-Glo), neuroblastoma cell lines; conditions: Homo sapiens; SH-SY5Y cell line
Procedure: as §1

renal cancer cell lines = test: Cell based assay, cell viability (CellTiter-Glo), renal cancer cell lines; conditions: Homo sapiens; ACHN cells
Procedure: as §1

[3] = MV4-11, blood cancer cell line MV-4-11, 72 hours, read-out: IC50, MV-4-11
[4] = blood cancer cell line Daudi, 72 hours, read-out: IC50, Daudi
[5] = blood cancer cell line HL-60, 72 hours, read-out: IC50, HL-60
[6] = blood cancer cell line Jurkat, 72 hours, read-out: IC50, Jurkat
[7] = blood cancer cell line MOLT-4, 72 hours, read-out: IC50, MOLT-4
[8] = blood cancer cell line Raji, 72 hours, read-out: IC50, Raji
[9] = blood cancer cell line Ramos (RA 1), 72 hours, read-out: IC50, Ramos (RA 1)
[10] = blood cancer cell line U-937, 72 hours, read-out: IC50, U-937
[11] = pancreatic cancer cell line AsPC-1, 72 hours, read-out: IC50, AsPC-1
[12] = pancreatic cancer cell line BxPC-3, 72 hours, read-out: IC50, BxPC-3
[13] = pancreatic cancer cell line CFPAC-1, 72 hours, read-out: IC50, CFPAC-1
[14] = pancreatic cancer cell line Capan-1, 72 hours, read-out: IC50, Capan-1
[15] = pancreatic cancer cell line Capan-2, 72 hours, read-out: IC50, Capan-2
[16] = pancreatic cancer cell line MIA PaCa-2, 72 hours, read-out: IC50, MIA PaCa-2
[17] = pancreatic cancer cell line PANC-1, 72 hours, read-out: IC50, PANC-1

SMILES | IC50 [1, 3] [nM] | IC50 [1, 4] [nM] | IC50 [1, 5] [nM] | IC50 [1, 6] [nM] | IC50 [1, 7] [nM] | IC50 [1, 8] [nM] | IC50 [1, 9] [nM] | IC50 [1, 10] [nM] | IC50 [2, 11] [nM] | IC50 [2, 12] [nM] | IC50 [2, 13] [nM] | IC50 [2, 14] [nM] | IC50 [2, 15] [nM] | IC50 [2, 16] [nM] | IC50 [2, 17] [nM] | IC50 (neuroblastoma cell lines) [nM] | IC50 (renal cancer cell lines) [nM]
CC(=O)c1c([S+]([O-])c2ccc(Br)cc2)[nH]c2c(Br)ccc(Cl)c2c1=O (stereo not shown) [Compound 17, 3-acetyl-8-bromo-2-((4-bromophenyl)sulfinyl)-5-chloroquinolin-4(1H)-one] | > 2000 | > 2000 | > 2000 | > 2000 | > 2000 | > 2000 | > 2000 | > 2000 | > 2000 | > 2000 | > 10000 | > 2000 | > 2000 | > 2000 | > 2000 | > 2000 | > 2000
CC(=O)c1c([S+]([O-])Cc2ccccc2)nc2c(Br)ccc(Cl)c2c1O (stereo not shown) [Compound 53, 1-(2-(benzylsulfinyl)-8-bromo-5-chloro-4-hydroxyquinolin-3-yl)ethan-1-one] | > 2000 | > 2000 | > 2000 | > 2000 | > 2000 | > 2000 | > 2000 | > 2000 | > 2000 | > 2000 | > 10000 | > 2000 | > 2000 | > 2000 | > 2000 | > 2000 | > 2000
CC(=O)c1c([S+]([O-])Cc2cc(C)on2)[nH]c2c(F)ccc(F)c2c1=O (stereo not shown) [Compound 82, 3-acetyl-5,8-difluoro-2-(((5-methylisoxazol-3-yl)methyl)sulfinyl)quinolin-4(1H)-one] | > 2000 | > 2000 | > 2000 | > 2000 | > 2000 | > 2000 | > 2000 | > 2000 | > 2000 | > 2000 | > 10000 | > 2000 | > 2000 | > 2000 | > 2000 | 1550 | > 2000
COc1ccccc1[S+]([O-])c1[nH]c2c(Br)ccc(Cl)c2c(=O)c1C(C)=O (stereo not shown) [Compound 15, 3-acetyl-8-bromo-5-chloro-2-((2-methoxyphenyl)sulfinyl)quinolin-4(1H)-one] | > 2000 | > 2000 | > 2000 | > 2000 | > 2000 | > 2000 | > 2000 | > 2000 | > 2000 | > 2000 | > 10000 | > 2000 | > 2000 | 1630 | > 2000 | > 2000 | > 2000
CC(=O)c1c([S+]([O-])Cc2ccccc2)nc2c(Br)ccc(Cl)c2c1O (stereo not shown) [Compound 4] | 1610 | > 2000 | 1980 | 1070 | 1370 | 1150 | 1760 | 1240 | > 2000 | > 2000 | > 10000 | > 2000 | > 2000 | 1340 | > 2000 | > 2000 | > 2000
CC(=O)c1c([S+]([O-])Cc2nonc2C)[nH]c2c(Br)ccc(Cl)c2c1=O (stereo not shown) [Compound 106, 3-acetyl-8-bromo-5-chloro-2-(((4-methyl-1,2,5-oxadiazol-3-yl)methyl)sulfinyl)quinolin-4(1H)-one] | > 2000 | > 2000 | > 2000 | > 2000 | > 2000 | > 2000 | > 2000 | > 2000 | > 2000 | > 2000 | > 10000 | > 2000 | > 2000 | > 2000 | > 2000 | 1290 | > 2000
CC(=O)c1c(SCc2cc(F)cc(F)c2)[nH]c2c(Br)ccc(Cl)c2c1=O [Compound 45, 3-acetyl-8-bromo-5-chloro-2-((3,5-difluorobenzyl)thio)quinolin-4(1H)-one] | > 2000 | > 2000 | > 2000 | > 2000 | > 2000 | > 2000 | > 2000 | > 2000 | > 2000 | > 2000 | > 10000 | > 2000 | > 2000 | > 2000 | > 2000 | > 2000 | > 2000
CC(=O)c1c([S+]([O-])Cc2ccc(C(F)(F)F)nc2C)[nH]c2c(Br)ccc(Cl)c2c1=O (stereo not shown) [Compound 102, 3-acetyl-8-bromo-5-chloro-2-(((2-methyl-6-(trifluoromethyl)pyridin-3-yl)methyl)sulfinyl)quinolin-4(1H)-one] | 1010 | 1020 | 1870 | > 2000 | 940 | 1400 | 980 | > 2000 | 1540 | > 2000 | > 10000 | 1660 | > 2000 | 690 | > 2000 | 520 | 1630
